Here are results for six molecules from patent US9637787B2, “Culture based screening assay and methods of use thereof to identify agents which modulate tumor development, invasion and differentiation” (The Trustees of the University of Pennsylvania, priority 2007, dated 2017).

One assay deals with periostin. The assay is described as follows: Western blot of periostin expression in cell lysates. It is filed as cell-based, human. The following applies: EPC2-hTERT-EGFR-p53^R175H cells, 24 h treatment; EGF 10 ng/μl, AG1478 1 μM, 5-iminodaunorubicin 3 μM. On the procedure:
FIG. 24: Periostin expression is dependent upon EGFR signaling and mutant p53 activation (A) Western blot analysis of periostin (90 kDa) in EPC2-hTERT-EGFR-p53^R175H, EPC2-hTERT-puro-neo, EPC2-hTERT-EGFR-neo and EPC2-hTERT-neo-p53^R175H cells. (B) Western blot analysis of periostin expression in EPC2-hTERT-EGFR-p53^R175H cell lysates after 24 h treatment with EGF (10 ng/μl), EGFR inhibitor AG1478 (1 μM) and 5-iminodaunorubicin (3 μM). Immunoblotting for total EGFR and phosphorylated EGFR to confirm inhibition of EGFR as well as p21 to indicate restoration of wildtype p53 signaling. β-actin was used as a loading control. Densitometry ratios of periostin/β-actin were calculated and recorded.
(§1) For Western blot analysis, cells were lysed in lysis buffer (10 mM Tris-HCl, pH 7.4, 150 mM NaCl, 1% Nonidet P-40, 0.1% sodium deoxycholate, 0.1% SDS, 1 mM EDTA, 2 mM sodium orthovanadate and a protease inhibitor tablet, Roche Molecular Biochemicals, Indianapolis, Ind.). Protein concentration was determined by the Bio-Rad protein assay (Bio-Rad, Hercules, Calif.). 15 μg of protein were run on a 4-12% SDS-PAGE gel (Invitrogen™) and transferred to a polyvinylidene difluoride membrane (Immobilon-P®, Millipore, Bedford, Mass.). Membranes were blocked in 5% nonfat milk (Bio-Rad) in TBS-T (10 mM Tris, 150 mM NaCl, pH 8.0 and 0.1% Tween® 20) for 1 h at room temperature. Membranes were then probed with primary antibody diluted in 5% milk in TBS-T overnight at 4° C., washed with TBS-T and incubated with anti-mouse or anti-rabbit horseradish peroxidase-conjugated secondary antibodies (GE Biotech, 1:3000 in TBS-T) for 1 h at room temperature and washed in TBS-T. The signal was visualized using an enhanced chemiluminescence solution (ECL Plus, Amersham™ Pharmacia Biotech) and exposed to Blue Lite Autorad film (ISC-BioExpress, Kaysville, Utah). To confirm secreted periostin expression, conditioned media was collected and protein concentration was determined by Bio-Rad protein assay (Bio-Rad) and Western blot analysis was performed as described above.
On the technique in general: A western blot detects proteins with antibodies after separation by electrophoresis.

The subject of a further assay is Met. Briefly: Met phosphorylation in EPC-hTERT-EGFR-p53^R175H cells. The following applies: data not shown. It counts as cell-based, human. On the procedure: as §1
For the next assay, the target named is T1, MMP-1 (Homo sapiens, UniProt P03956).
T1 sequence (P03956 100-469): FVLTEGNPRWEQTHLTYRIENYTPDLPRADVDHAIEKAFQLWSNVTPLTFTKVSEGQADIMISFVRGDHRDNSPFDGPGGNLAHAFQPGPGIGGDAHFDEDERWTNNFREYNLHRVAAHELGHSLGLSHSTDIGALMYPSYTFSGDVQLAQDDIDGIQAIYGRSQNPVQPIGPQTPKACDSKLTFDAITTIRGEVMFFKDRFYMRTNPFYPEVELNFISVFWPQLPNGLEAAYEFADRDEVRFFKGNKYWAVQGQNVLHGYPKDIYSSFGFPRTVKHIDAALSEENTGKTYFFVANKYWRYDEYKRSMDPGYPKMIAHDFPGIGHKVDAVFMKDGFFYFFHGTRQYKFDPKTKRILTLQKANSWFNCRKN
The following applies: cited from earlier work.

Assay [1] deals with EPC-hTERT-EGFR-p53^R175H cells. The assay is described as follows: matrix invasion in 3D organotypic culture above FEF3 fetal esophageal fibroblast matrices. The following applies: 100 nM. It counts as cell-based, human. The method, then:
(§2) (A) Fluorescence measurements representing invading cells on the bottom filters of a Matrigel®-coated Boyden chamber where HGF was added as the chemoattractant of EPC-hTERT-EGFR-p53^R175H cells seeded atop the filter. (B) Level of secreted HGF in conditioned media from FEF3 fibroblasts±HGF siRNA set up in organotypic culture and detected by ELISA. (C) H&E sections of organotypic cultures of FEF3 fibroblasts±HGF siRNA seeded into the matrix with EPC-hTERT-EGFR-p53^R175H grown above (scale bar=100 μm). (D) Quantification of invasion in entire organotypic culture imaged in (C). Error bars represent ±SEM and * indicates p values ≦0.05 when compared to the control.
(A) Western blot of EPC-hTERT-EGFR-p53^R175HshMet or EPC-hTERT-EGFR-p53^R175H shScramble cells (two independent lines of each genotype) to determine extent of Met knockdown of total protein and activation state. (B) H&E sections of organotypic culture of EPC-hTERT-EGFR-p53^R175H-shMet or EPC-hTERT-EGFRp53^R175H-shScramble cells seeded above matrices containing FEF3 fetal esophageal fibroblasts. (C) H&E sections of organotypic cultures of EPC-hTERT-EGFR-p53^R175H cells seeded above FEF3 matrices treated with DMSO vehicle (days 7-15) or 100 nM PHA665752 (days 7-15 or day 11-15) as indicated. […]

Assay [2] deals with EPC-hTERT-EGFR-p53^R175H cells. Briefly: Matrigel-coated Boyden chamber invasion assay with chemoattractant. It is filed as cell-based, human. The following applies: HGF added as chemoattractant. On the procedure: as §2
For migration assays, Boyden chambers (8 μm pore size, FluoroBlok-HTS inserts, BD Biosciences) were used. For invasion assays, insert-plates (8 μm pore size, FluoroBlock, 24 well insert) coated with BD Matrigel® matrix were used. Inserts were placed in a 24-well plate containing Full KSFM medium with serum to stimulate cell migration and invasion. 5×10^4 cells in serum-free medium were placed in each insert. Twenty-four hours later, migrating or invading cells were labeled with 4 μg/ml Calcein AM dye (Invitrogen™) in HANKS buffer for 1 hour. The labeled cells were then read on a Synergy HT multi-detection microplate reader (BIOTEK®, Woburn, Mass.) at 485 nm excitation and 528 nm detection. […]

pIC50: −log10 of the molar value.

In the case of `COc1cccc2c1C(=N)c1c(O)c3c(c(O)c1C2=O)C[C@@](O)(C(C)=O)C[C@@H]3O[C@H]1C[C@H](N)[C@H](O)[C@H](C)O1` [5-iminodaunorubicin], in the assay on periostin, the periostin protein expression entry is “decreased”.

For `COc1cc2ncnc(Nc3cccc(Cl)c3)c2cc1OC` [AG1478], the periostin protein expression result with periostin was “decreased”. Also, the Met phosphorylation result with Met is recorded as “nor was Met phosphorylation inhibited”.

The term pIC50 denotes −log10 of the IC50, conventionally taken in molar units. Regarding `CCN(CC)Cc1cc(C)c(N(Cc2ccccc2)S(=O)(=O)c2ccc(OC)cc2)c(C(=O)NO)c1` [MMP-9 inhibitor], the negative logarithm of the IC50 (pIC50) on MMP-1 is 5.98.

As for `Cc1[nH]c(/C=C2\C(=O)Nc3ccc(S(=O)(=O)Cc4c(Cl)cccc4Cl)cc32)c(C)c1C(=O)N1CCC[C@@H]1CN1CCCC1` [PHA665752], the “invasion of EPC-hTERT-EGFR-p53^R175H cells in organotypic culture” value in assay [1] (treated for seven days following epithelial cell seeding (days 7-15)) and in assay [1] (treated for the final four days when invasion occurs (day 11-15)) was “inhibited invasion” throughout.

Regarding “EGF: epidermal growth factor used to stimulate EGFR”, the periostin protein expression result in the assay on periostin is given as “increased periostin protein expression”.

In the case of “HGF: Recombinant human HGF purchased from R&D Systems”, the “levels of invading cells” value in assay [2] was “significantly increased levels of invading”.
